The target of one data set is T1, M2 receptor (Rattus norvegicus, UniProt P10980).
T1 construct: from tissue; host or cells: rat heart, 40,000 g membrane fraction
T1 sequence (P10980 1-466): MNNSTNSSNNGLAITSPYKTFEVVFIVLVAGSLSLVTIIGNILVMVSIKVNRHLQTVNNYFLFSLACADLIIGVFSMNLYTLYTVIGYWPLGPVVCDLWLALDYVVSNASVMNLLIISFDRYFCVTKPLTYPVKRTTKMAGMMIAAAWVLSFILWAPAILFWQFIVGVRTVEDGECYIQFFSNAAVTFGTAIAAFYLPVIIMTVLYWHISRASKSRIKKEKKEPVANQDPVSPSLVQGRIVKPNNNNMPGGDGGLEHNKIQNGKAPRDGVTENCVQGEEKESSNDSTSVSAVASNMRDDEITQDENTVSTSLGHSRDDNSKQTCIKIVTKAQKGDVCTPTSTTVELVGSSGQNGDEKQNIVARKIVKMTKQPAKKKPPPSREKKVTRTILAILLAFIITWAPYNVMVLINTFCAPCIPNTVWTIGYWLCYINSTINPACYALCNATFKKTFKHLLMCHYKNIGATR
As to the kind of experiment: M2 receptor binding ((3H)N-methyl scopolamine, heart). As for the experimental part:
The binding ability to M2 receptor was determined according to a modification of the method of Buckley et al. (Mol. Pharmacol., 35, 469 (1989)). Concretely, 10 volume (W/V) of 50 mM Tris-HCl buffer (pH 7.4) was added to rat's heart, and after the homogenization with polytron, the homogenate was centrifuged and washed twice at 500 g for 10 minutes. The resulting supernatant was centrifuged four times at 40,000 g for 20 minutes. To 450 μl of the test liquid which was prepared by re-suspending the resulting precipitate, were added 200 μl of (^3 H)N-methyl scopolamine, a muscarinic specific antagonist, and 100 μl of a test medicinal compound. After the incubation at 22° C. for 90 minutes, the amount of (^3 H)N-methyl scopolamine found was determined.
(§1) Ki is an affinity of a medicinal compound for a receptor, which is calculated from the following formula: [formula]
(§2) In addition, nH is pseudo Hill coefficient which represents the number of a binding part of a receptor. When the values of IC50 and Ki are smaller, a binding ability of a medicinal compound to a receptor is stronger.

In the next data set the target is T2, M1 receptor (Rattus norvegicus, UniProt P08482).
T2 construct: from tissue; host or cells: Wistar male rat cerebral cortex, washed homogenate
T2 sequence (P08482 1-460): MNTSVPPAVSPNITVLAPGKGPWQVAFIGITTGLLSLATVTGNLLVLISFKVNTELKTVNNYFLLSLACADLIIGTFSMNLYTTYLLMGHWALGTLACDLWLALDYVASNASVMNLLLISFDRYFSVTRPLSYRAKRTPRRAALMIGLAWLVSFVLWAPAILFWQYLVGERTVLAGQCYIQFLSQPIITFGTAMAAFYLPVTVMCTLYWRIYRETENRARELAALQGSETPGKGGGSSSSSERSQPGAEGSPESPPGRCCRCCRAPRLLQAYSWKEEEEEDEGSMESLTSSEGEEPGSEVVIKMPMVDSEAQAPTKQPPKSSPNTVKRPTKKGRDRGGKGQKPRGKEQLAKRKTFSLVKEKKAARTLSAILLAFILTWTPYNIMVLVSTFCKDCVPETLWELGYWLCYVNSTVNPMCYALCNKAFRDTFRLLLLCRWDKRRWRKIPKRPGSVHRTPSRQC
In words: M1 receptor binding ((3H)pirenzepine, cerebral cortex). Set-up: species or system Wistar male rat. As to conditions: for nH (pseudo Hill coefficient) / IC50 / Ki: (3H)pirenzepine, rat cerebral cortex; for IC50: 25° C., 60 minutes, pH 7.4; for Ki: calculated from IC50; for M1 receptor binding ability / selectivity (in words): M1 vs M2; for M1 receptor binding ability compared with muscarinic agonists (in words): vs AF102B and McN-A-343. As for the experimental part:
The binding ability of the test compounds to M1 receptor was determined according to a modification of the method of Watson et al. (Life Sci., 32, 3001 (1983)). Concretely, 100 volume (W/V) of 10 mM Na--K phosphate buffer (pH 7.4) was added to a cerebral cortex of a Wistar male rat, and after the homogenization with polytron, the homogenate was centrifuged and washed twice. To 1 ml of the test liquid which was prepared by re-suspending the resulting precipitate, were added 20 μl of (^3 H)pirenzepine, M1 receptor specific antagonist, and 20 μl of a test medicinal compound. After the incubation at 25° C. for 60 minutes, the mixture was filtrated and washed with a glass filter, and an amount of (^3 H)pirenzepine bound to the receptor was counted by means of a liquid scintillation counter.
as §1, §2

Data set [1] concerns experimental amnesia in rat induced by lesioning basal forebrain (BF). In words: Anti-amnesic effect: step-through passive avoidance, amnesia induced by BF lesion (ibotenic acid). The data set is classed as in vivo, Wistar male rat. As to conditions: for minimal effective dose: Rattus norvegicus, oral, BF lesion amnesia, read-out: most potent minimal effective dose; for Latency: retention after 24 hours, max 300 s. As for the experimental part: (§3) As experimental animals, Wistar male rats and ddY male mice were used for the experiments after they were housed for a week under every 12 hours'dark-light cycle at room temperature of 24° to 26° C.
The effect on experimental amnesia in rat induced by lesioning basal forebrain (BF) was evaluated.
The experiment was carried out using an experimental apparatus of step-through type passive avoidance task for rat (made by Ohara-ika-sangyoK.K. ) comprising two compartments of dark and light. That is, the dark compartment (height: 200 cm, width: 150 cm, length: 200 cm) was a black plastic box and was floored with stainless grids for giving an electrical shock so that an electricity might be turned on a determined time after interception of a photobeam placed in the dark compartment. The light compartment made of transparent plastic (height: 200 cm, width: 250 cm, length: 200 cm) was provided adjacent to the dark compartment and was lightened from a location spaced 25 cm above by a 60 W electric lamp. Between the two compartments, there was provided an entrance with a guillotine door which could be opened and closed, and when the guillotine door was opened, a rat could freely move from one compartment to another.
Amnesia was induced by BF lesion. Among presently known methods for inducing amnesia, this method is considered to provide an animal model having the most similar pathology to Alzheimer's disease. The BF lesion was carried out by fixing an animal to a stereotaxic apparatus under nembutal anesthesia, inserting a stainless pipe into the BF area according to the brain map of Koenig, and injecting ibotenic acid bilaterally from the stainless pipe. In the sham-operation group, although craniotomy was carried out, ibotenic acid was not injected and therefore BF was not lesioned. The animals were used for experiments after recovery period of about 4 weeks.
Anti-amnesic effect was evaluated according to the following procedure.
A Wistar male rat (9 week-old) previously conditioned in the dark-light box was put in the light compartment and the guillotine door was opened. When the rat moved into the dark compartment, 150 V electrical shock was given for 3 seconds from the floor grid (aquisition trial). After 24 hours, retention trial was carried out in the same manner as in the aquisition trial, and latency, a period until the animal put in the light compartment entered the dark compartment, was measured maximally 300 seconds.
Every test compound was suspended in a distilled water containing 2.5% of gum arabic and 0.2% of Tween 80. […] The doses were 0.01 to 10 mg/kg.

A short description of data set [2]: Acute toxicity test, oral. The data set is classed as in vivo, ddY male mice. As to conditions: mouse, in vivo; oral, 2 weeks observation; estimated. As for the experimental part: as §3
(§4) With respect to Compounds 1a and 1b shown in Table 1 as test compounds, the acute toxicity was examined using ddY mice according to the following method.
(§5) In each group, six male ddY mice weighing 27 to 30 g were employed. Compounds 1a and 1b suspended in an aqueous solution of 0.5% sodium carboxymethylcellulose were orally administered in a dose of 0.1 ml/10 g body weight. […] The LD50 (mg/kg) values were estimated from the ratio of the number of dead mice to the number of mice used.

A further data set has as its system ddY mice. In words: Acute toxicity test, oral. As to conditions: 100 mg/kg oral, 2 weeks observation, 0.5% sodium carboxymethylcellulose. The format is in vivo, ddY male mice. As for the experimental part: as §3, §4, §5
The mark [3] stands for this setting: (3H)N-methyl scopolamine, rat heart, 22° C., 90 minutes, pH 7.4.
The mark [4] stands for this setting: 0.1 mg/kg p.o., 1 hour before aquisition trial.
Where [5] appears, read: 1.0 mg/kg p.o., 1 hour before aquisition trial.

Bounds are passed on as bounds.

On to `CC1OC2(CS1)CN1CCC2CC1` (stereo not drawn) [AF102B, cis-2-methylspiro(1,3-oxathiolane-5,3') quinuclidine, reference compound], for which the IC50 at M2 receptor (setting [3]) was > 10000 nM. On M1 receptor, the “nH (pseudo Hill coefficient)” value stood at 0.8 ± 0.01, the IC50 stood at 729 ± 116 nM and the Ki was 509 ± 80 nM. Also, the minimal effective dose in data set [1] was 1 mg/kg.

With `C[N+](C)(C)CC#CCOC(=O)Nc1cccc(Cl)c1` [McN-A-343, 4[[[3-chlorophenyl)amino]carbonyl]oxy]-N, N, N-trimethyl-2-butyn-1-aminium chloride, reference compound], the IC50 on M2 receptor (setting [3]) is > 10000 nM. Further, on M1 receptor, the “nH (pseudo Hill coefficient)” value is recorded as 0.9 ± 0.05, the IC50 was found to be 842 ± 88 nM and the Ki was 581 ± 61 nM.

For the compound `C(=C1\CN2CCC1CC2)/c1cccc(Oc2ccccc2)c1` [Compound 1b], the “nH (pseudo Hill coefficient)” value worked out at 1.0 ± 0.02 on M2 receptor ((3H)N-methyl scopolamine, rat heart) and 0.8 ± 0.07 at M1 receptor. The IC50 on M2 receptor (setting [3]) is 4400 ± 100 nM; on M2 receptor (M2 receptor binding), ≤ 10000 nM; on M1 receptor, 23 ± 3 nM. Moreover, the Ki is 1700 ± 40 nM on M2 receptor ((3H)N-methyl scopolamine, rat heart, calculated from IC50) and 16 ± 2 nM on M1 receptor. Also, at M2 receptor (M2 vs M1), the “M2 receptor binding ability weaker than M1 receptor binding ability” value was “about 190 times”. For the same compound, the LD50 at 336 h in data set [2] was ≥ 100 mg/kg. Besides, in the data set with ddY mice, the dead mice entry was “no dead mice”. The “M1 receptor binding ability / selectivity (in words)” value on M1 receptor was “strong and specific M1 receptor binding ability”. At M1 receptor, the “M1 receptor binding ability compared with muscarinic agonists (in words)” value is “stronger binding ability to M1 than muscarinic agonists, AF102B (in course of clinical testing) and McN-A-343”. In addition, the Latency in data set [1] (0.01 mg/kg p.o., 1 hour before aquisition trial) stood at 76 s; in data set [1] (setting [4]) it was 182 s; in data set [1] (setting [5]), 139 s; in data set [1] (10 mg/kg p.o., 1 hour before aquisition trial), 99 s. In data set [1], the minimal effective dose was 0.1 mg/kg.

In the case of `C(=C1/CN2CCC1CC2)/c1cccc(Oc2ccccc2)c1` [Compound 1a], the IC50 on M2 receptor (setting [3]) is > 10000 nM. For the same compound, the LD50 at 336 h in data set [2] is ≥ 100 mg/kg. Further, the dead mice entry with ddY mice is given as “no dead mice”. At M1 receptor, the “nH (pseudo Hill coefficient)” value is 0.9 ± 0.06; the IC50 came to 221 ± 32 nM; the Ki was 152 ± 22 nM; the “M1 receptor binding ability / selectivity (in words)” value is “strong and specific M1 receptor binding ability”. Further, the “M1 receptor binding ability compared with muscarinic agonists (in words)” value at M1 receptor is “stronger binding ability to M1 than muscarinic agonists, AF102B (in course of clinical testing) and McN-A-343”. The same compound had a Latency in data set [1] (setting [4]) of 38 s. In data set [1] (setting [5]), this compound displayed a Latency of 156 s. For the same compound, the minimal effective dose in data set [1] amounted to 1 mg/kg.

For the compound `Nc1c2c(nc3ccccc13)CCCC2` [Tacrine, tetrahydroaminoacridine, reference compound], the Latency in data set [1] (1.0 mg/kg p.o., 30 minutes before aquisition trial) is 79 s; in data set [1] (5.0 mg/kg p.o., 30 minutes before aquisition trial), 188 s.

Broadly, the IC50 is the concentration that gives 50% inhibition. The low end stands for greater potency in that assay, the high end for weaker potency in that assay. As usually defined, the Ki is a measure of affinity in units of concentration, obtained from inhibition or displacement. For orientation: minimal effective dose means the smallest amount tested that counted as effective. What is called LD50 is the dose expected to kill half of the subjects tested.
